Laboratory results: paper PMC3407616, “Inhibition of Heme Peroxidases by Melamine” (Enzyme Research, 2012)

How the values were obtained:
lactoperoxidase (LPO) = lactoperoxidase (LPO) (Bos taurus, UniProt P80025); test: iodide oxidation (HOI formation), absorbance […] nm, kinetic fit; format: biochemical; details: read-out: LPO^b
I = test: purified protein; details: pH 6.0

| Compound | Ki (lactoperoxidase (LPO)) | Km (I) |
| --- | --- | --- |
| Nc1nc(N)nc(N)n1 [melamine, 2,4,6-triamino-1,3,5-triazine] | 15 ± 5 mM | – |
| lactoperoxidase (LPO) (Bos taurus) | – | 2900 ± 400 µM |
